Measured values as given in patent US10287267B2, “Isoquinolin-3-yl carboxamides and preparation and use thereof” (Samumed, LLC, priority 2016, dated 2019).

Key:
[1] = tested on: Wnt pathway (Sp5-Luc reporter, TCF/LEF binding sites) in SW480 colon carcinoma cells; assay: Screening assay for Wnt activity: Sp5-Luc reporter gene assay; format: cell-based, human; settings: Homo sapiens; for EC50: Sp5-Luc reporter, SW480 cells, 36 to 48 hours; for inhibition at 10 µM: SW480, read-out: percent inhibition at 10 μM;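 on all read-outs here: firefly luciferase luminescence read in stably transduced SW480 cells carrying the Sp5 promoter reporter with eight TCF/LEF sites, compounds given in 0.1% DMSO final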
Protocol: The screening assay for Wnt activity is described as follows.
Following incubation, 15 μl of BriteLite Plus luminescence reagent (Perkin Elmer) was added to each well of the 384-well assay plates. The plates were placed on an orbital shaker for 2 min and then luminescence was quantified using the Envision (Perkin Elmer) plate reader.

[2] = biological target: recombinant DYRK1A kinase (Homo sapiens (Human), UniProt Q13627); assay: DYRK1A kinase assay (Ser/Thr 18 peptide Z-lyte FRET); format: biochemical; settings: 30 μM ATP, 1 h room temperature;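 further: Read-out is the coumarin to fluorescein emission ratio, referenced to unphosphorylated (0%) and phosphorylated (100%) Ser/Thr 18 peptide controls, values from dose-response curves by non-linear regression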
[3] = biological target: recombinant GSK3β kinase (Homo sapiens (Human), UniProt P49841); assay: GSK3β kinase assay (Ser/Thr 09 peptide Z-lyte FRET); format: biochemical; settings: 46 μM ATP, 1 h room temperature;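 further: kinase activity read as coumarin to fluorescein emission ratio, 11-point threefold dilutions from 10 µM to 0.0003 µM in duplicate, unphosphorylated and phosphorylated peptide as 0% and 100% controls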
Sequence of recombinant GSK3β kinase (P49841 whole entry): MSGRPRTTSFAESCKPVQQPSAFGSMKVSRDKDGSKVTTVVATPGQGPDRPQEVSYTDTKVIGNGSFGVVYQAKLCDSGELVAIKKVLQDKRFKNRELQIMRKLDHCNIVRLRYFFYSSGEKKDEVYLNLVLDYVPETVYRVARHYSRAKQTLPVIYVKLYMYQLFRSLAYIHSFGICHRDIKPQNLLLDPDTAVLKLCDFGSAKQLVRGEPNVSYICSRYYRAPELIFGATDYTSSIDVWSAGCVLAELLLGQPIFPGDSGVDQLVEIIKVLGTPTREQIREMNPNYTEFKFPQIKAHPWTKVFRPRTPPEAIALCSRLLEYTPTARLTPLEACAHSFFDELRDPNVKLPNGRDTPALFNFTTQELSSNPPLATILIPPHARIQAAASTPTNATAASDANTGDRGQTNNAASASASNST

[4] = tested on: Tau phosphorylation at Ser396 (pSer396); assay: Tau phosphorylation assay (pSer396 ELISA / western blot) in SH-SY5Y cells; format: cell-based, human; settings: Homo sapiens; SH-SY5Y cells, overnight (16-18 h) exposure; read-out: pSer396 Tau EC50;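 further: EC50 for reduction of Tau pSer396 in lysed cells, measured by colorimetric ELISA or chemiluminescent western blot, both using the same pSer396 antibody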
[5] = tested on: α-smooth muscle actin (αSMA) positive LL29 cells; assay: Inhibition of fibrotic process: αSMA in TGF-β1 treated primary human fibroblasts from IPF patients; format: cell-based; settings: Homo sapiens, Fibroblast; for EC50: 96 h, Table 8, LL29 fibroblasts from IPF patients, TGF-β1 20 ng/mL, 4 days, dose-response 10 μM to 0.94 nM; for inhibition at 10 µM: read-out: percent value in parentheses beside EC50 >10 μM;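 on all read-outs here: controls were TGF-β1 stimulated wells with DMSO vehicle (positive) and cells given DMSO alone (negative), cultured in F12 medium with 1% fetal bovine serum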
[6] = tested on: SW480 colon carcinoma cells; assay: Cell viability assay (CellTiter-Glo); format: cell-based, human; settings: Homo sapiens; for EC50: 96 h, SW480 cells, CellTiter-Glo, four days incubation; for inhibition at 10 µM: SW480, read-out: percent inhibition at 10 μM
[7] = tested on: IL-6; assay: IL-6 inhibition in LPS-stimulated human peripheral blood mononuclear cells (HTRF); format: cell-based; settings: Homo sapiens, PBMC; for EC50: Table 9, huPBMCs, LPS 50 ng/mL, 22 hours, dose-response starting from 10 μM; for inhibition at 10 µM: read-out: percent value in parentheses beside EC50 >10 μM;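 on all read-outs here: IL-6 detected by HTRF with an XL665- and Cryptate-labelled anti-IL-6 antibody pair, samples run in duplicate, EC50 obtained from a four-parameter Levenberg-Marquardt curve fit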
Protocol: After 22 hour incubation, a mixture of anti-IL6 XL665 and anti-IL-6 Cryptate diluted in reconstitution buffer (Catalog #62IL6PEC, Cisbio Inc., Bedford, Mass.) was added to each well. […] All samples were processed in duplicate. […] EC50 was determined using software generated by Dotmatics Limited (Windhill Bishops Stortford Herts, UK) using the Levenberg-Marquardt 4 parameter fitting procedure with finite different gradients.

SMILES	EC50 [1]	EC50 [2]	EC50 [3]	EC50 [4]	EC50 [5]	inhibition at 10 µM [5]	EC50 [6]	EC50 [7]	inhibition at 10 µM [7]	inhibition at 10 µM [1]	inhibition at 10 µM [6]
CN1CCC(C(=O)Nc2cc3cc(-c4cnn(C)c4CO)ccc3cn2)CC1 [Compound 985, N-(6-(5-(Hydroxymethyl)-1-methyl-1H-pyrazol-4-yl)isoquinolin-3-yl)-1-methylpiperidine-4-carboxamide]	1160 nM	4.1 nM	283 nM	3200 nM	> 10000 nM	38%	1720 nM	3890 nM	–	–	–
O=C(Nc1cc2cc(-c3cnc4n3CCNC4)ccc2cn1)C1CC(F)(F)C1 [Compound 986, 3,3-Difluoro-N-(6-(5,6,7,8-tetrahydroimidazo[1,2-a]pyrazin-3-yl)isoquinolin-3-yl)cyclobutane-1-carboxamide]	1380 nM	11 nM	21 nM	387 nM	158 nM	–	3300 nM	> 10000 nM	13.4%	–	–
O=C(Nc1cc2cc(-c3cnc4n3CCNC4)ccc2cn1)[C@H]1CCCN1 [Compound 987, (R)—N-(6-(5,6,7,8-Tetrahydroimidazo[1,2-a]pyrazin-3-yl)isoquinolin-3-yl) pyrrolidine-2-carboxamide]	> 10000 nM	42.8 nM	2320 nM	> 10000 nM	> 10000 nM	42%	> 10000 nM	> 10000 nM	6.5%	10.7%	10.6%
O=C(Nc1cc2cc(-c3cnc4n3CCNC4)ccc2cn1)[C@@H]1CCCNC1 [Compound 988, (R)—N-(6-(5,6,7,8-Tetrahydroimidazo[1,2-a]pyrazin-3-yl)isoquinolin-3-yl) piperidine-3-carboxamide]	> 10000 nM	24.9 nM	1090 nM	> 10000 nM	> 10000 nM	46.5%	> 10000 nM	> 10000 nM	8.8%	11.1%	18%
CN1CCC(C(=O)Nc2cc3cc(-c4cnc5n4CCNC5)ccc3cn2)CC1 [Compound 989, 1-Methyl-N-(6-(5,6,7,8-tetrahydroimidazo[1,2-a]pyrazin-3-yl)isoquinolin-3-yl)piperidine-4-carboxamide]	4320 nM	16.2 nM	298 nM	> 10000 nM	4420 nM	–	> 10000 nM	> 10000 nM	12.5%	–	36.4%
O=C(Nc1cc2cc(-c3cnc4n3CCNC4)ccc2cn1)C1CCN(CC2(C(F)(F)F)CC2)CC1 [Compound 990, N-(6-(5,6,7,8-Tetrahydroimidazo[1,2-a]pyrazin-3-yl)isoquinolin-3-yl)-1-((1-(trifluoromethyl)cyclopropyl)methyl)piperidine-4-carboxamide]	2860 nM	21.3 nM	100 nM	1800 nM	782 nM	–	3550 nM	> 10000 nM	0%	–	–
O=C(Nc1cc2cc(-c3cnc4n3CCNC4)ccc2cn1)C1CCN(C(=O)c2ccccc2)CC1 [Compound 991, 1-Benzoyl-N-(6-(5,6,7,8-tetrahydroimidazo[1,2-a]pyrazin-3-yl)isoquinolin-3-yl)piperidine-4-carboxamide]	1700 nM	3.3 nM	29 nM	10000 nM	2680 nM	–	3960 nM	3240 nM	–	–	–
Cn1ncc(-c2ccc3cnc(NC(=O)C4CC5(C4)CN(C(=O)OC(C)(C)C)C5)cc3c2)c1CN1CCCCC1 [Compound 992, tert-Butyl 6-((6-(1-methyl-5-(piperidin-1-ylmethyl)-1H-pyrazol-4-yl)isoquinolin-3-yl)carbamoyl)-2-azaspiro[3.3]heptane-2-carboxylate]	3210 nM	25.3 nM	14 nM	350 nM	2970 nM	–	5600 nM	> 10000 nM	2.6%	–	–
Cc1ncc(-c2ccc3cnc(NC(=O)CN4CCCC4)cc3c2)s1 [Compound 993, N-(6-(2-Methylthiazol-5-yl)isoquinolin-3-yl)-2-(pyrrolidin-1-yl)acetamide]	7970 nM	14.7 nM	87 nM	702 nM	1490 nM	–	6580 nM	8840 nM	–	–	–
Cc1ncc(-c2ccc3cnc(NC(=O)CN4CCOCC4)cc3c2)s1 [Compound 994, N-(6-(2-Methylthiazol-5-yl)isoquinolin-3-yl)-2-morpholinoacetamide]	7900 nM	12.9 nM	110 nM	1900 nM	567 nM	–	> 10000 nM	> 10000 nM	31.8%	–	36.8%
Cc1ncc(-c2ccc3cnc(NC(=O)CN4CCN(C)CC4)cc3c2)s1 [Compound 995, 2-(4-Methylpiperazin-1-yl)-N-(6-(2-methylthiazol-5-yl)isoquinolin-3-yl) acetamide]	> 10000 nM	13.3 nM	177 nM	2400 nM	1250 nM	–	> 10000 nM	8930 nM	–	43.8%	47.6%
Cc1ncc(-c2ccc3cnc(NC(=O)CN4C[C@H]5C[C@@H]4CO5)cc3c2)s1 [Compound 996, 2-((1R,4R)-2-Oxa-5-azabicyclo[2.2.1]heptan-5-yl)-N-(6-(2-methylthiazol-5-yl)isoquinolin-3-yl)acetamide]	4390 nM	13.4 nM	141 nM	3100 nM	1200 nM	–	> 10000 nM	> 10000 nM	10.6%	–	32.2%
O=C(Nc1cc2cc(-c3cnn4c3CNCC4)ccc2cn1)C1CCN(CC2(C(F)(F)F)CC2)CC1 [Compound 997, N-(6-(4,5,6,7-Tetrahydropyrazolo[1,5-a]pyrazin-3-yl)isoquinolin-3-yl)-1-((1-(trifluoromethyl)cyclopropyl)methyl)piperidine-4-carboxamide]	3890 nM	186 nM	33 nM	1300 nM	567 nM	–	5060 nM	> 10000 nM	28.6%	–	–
O=C(Nc1cc2cc(-c3cnn4c3CN(CCF)CC4)ccc2cn1)C1CCN(CC2(C(F)(F)F)CC2)CC1 [Compound 998, N-(6-(5-(2-Fluoroethyl)-4,5,6,7-tetrahydropyrazolo[1,5-a]pyrazin-3-yl)isoquinolin-3-yl)-1-((1-(trifluoromethyl)cyclopropyl)methyl)piperidine-4-carboxamide]	2250 nM	6.2 nM	102 nM	638 nM	260 nM	–	4750 nM	7080 nM	–	–	–
O=C(CN1CCCC1)Nc1cc2cc(-c3cnn4c3CN(CCF)CC4)ccc2cn1 [Compound 999, N-(6-(5-(2-Fluoroethyl)-4,5,6,7-tetrahydropyrazolo[1,5-a]pyrazin-3-yl)isoquinolin-3-yl)-2-(pyrrolidin-1-yl)acetamide]	3100 nM	20.9 nM	86 nM	659 nM	779 nM	–	7510 nM	> 10000 nM	30.3%	–	–
